Experimental data published in ChEMBL document CHEMBL1177794, “Broad spectrum alkynyl inhibitors of T315I Bcr-Abl” (Bioorg Med Chem Lett, 2010).

Assays:
[1] = target: Mitogen-activated protein kinase 1 (Homo sapiens) (UniProt P28482); test: Inhibition of ERK2 at 10 uM; values are per cent of control
[2] = target: Cyclin-dependent kinase 2 (Homo sapiens) (UniProt P24941); test: Inhibition of CDK2 at 10 uM; values are per cent of control
[3] = target: Serine/threonine-protein kinase 32C (Homo sapiens) (UniProt Q86UX6); test: Inhibition of YANK3 at 10 uM; details: values are per cent of control
[4] = target: Serine/threonine-protein kinase 32B (Homo sapiens) (UniProt Q9NY57); test: Inhibition of YANK2 at 10 uM; details: values are per cent of control
[5] = target: TGF-beta receptor type-2 (Homo sapiens) (UniProt P37173); test: Inhibition of TGFBR2 at 10 uM
[6] = test system: Fibroblast growth factor receptor 3 (Homo sapiens), P22607 [G697C]; test: Inhibition of FGFR3 G697C mutant at 10 uM; details: values are per cent of control
[7] = target: Serine/threonine-protein kinase SBK1 (Homo sapiens) (UniProt Q52WX2); test: Inhibition of SBK1 at 10 uM
[8] = target: Serine/threonine-protein kinase Sgk3 (Homo sapiens) (UniProt Q96BR1); test: Inhibition of SGK3 at 10 uM
[9] = target: Fibroblast growth factor receptor 3 (Homo sapiens) (UniProt P22607); test: Inhibition of FGFR3 at 10 uM; details: values are per cent of control
[10] = target: Serine/threonine-protein kinase RIO3 (Homo sapiens) (UniProt O14730); test: Inhibition of RIOK3 at 10 uM
[11] = target: Receptor tyrosine-protein kinase erbB-3 (Homo sapiens) (UniProt P21860); test: Inhibition of ERBB3 at 10 uM; values are per cent of control
[12] = target: Phosphatidylinositol 4-phosphate 5-kinase type-1 alpha (Homo sapiens) (UniProt Q99755); test: Inhibition of PIP5K1A at 10 uM
[13] = target: Phosphatidylinositol 4-phosphate 3-kinase C2 domain-containing subunit beta (Homo sapiens) (UniProt O00750); test: Inhibition of PIK3C2B at 10 uM
[14] = target: Casein kinase I isoform gamma-1 (Homo sapiens) (UniProt Q9HCP0); test: Inhibition of CSNK1G1 at 10 uM; values are per cent of control
[15] = target: Atypical kinase COQ8B, mitochondrial (Homo sapiens) (UniProt Q96D53); test: Inhibition of ADCK4 at 10 uM; details: values are per cent of control
[16] = target: Mitogen-activated protein kinase 7 (Homo sapiens) (UniProt Q13164); test: Inhibition of ERK5 at 10 uM; values are per cent of control
[17] = target: Testis-specific serine/threonine-protein kinase 1 (Homo sapiens) (UniProt Q9BXA7); test: Inhibition of TSSK1B at 10 uM; details: values are per cent of control
[18] = target: Macrophage colony-stimulating factor 1 receptor (Homo sapiens) (UniProt P07333); test: Inhibition of CSF1R at 10 uM; details: values are per cent of control
[19] = target: Dual specificity protein kinase CLK1 (Homo sapiens) (UniProt P49759); test: Inhibition of CLK1 at 10 uM; details: values are per cent of control
[20] = target: Serine/threonine-protein kinase PAK 5 (Homo sapiens) (UniProt Q9P286); test: Inhibition of PAK7 at 10 uM; details: values are per cent of control
[21] = target: Tyrosine-protein kinase Yes (Homo sapiens) (UniProt P07947); test: Inhibition of YES at 10 uM; details: values are per cent of control
[22] = target: Casein kinase II subunit alpha' (Homo sapiens) (UniProt P19784); test: Inhibition of CSNK2A2 at 10 uM; details: values are per cent of control
[23] = target: Ephrin type-A receptor 5 (Homo sapiens) (UniProt P54756); test: Inhibition of EPHA5 at 10 uM; values are per cent of control
[24] = test system: Mast/stem cell growth factor receptor Kit (Homo sapiens), P10721 [L576P]; test: Inhibition of KIT L576P mutant at 10 uM; details: values are per cent of control
[25] = target: Ephrin type-B receptor 1 (Homo sapiens) (UniProt P54762); test: Inhibition of EPHB1 at 10 uM; details: values are per cent of control
[26] = target: Calcium/calmodulin-dependent protein kinase type II subunit beta (Homo sapiens) (UniProt Q13554); test: Inhibition of CAMK2B at 10 uM; details: values are per cent of control
[27] = target: Serine/threonine-protein kinase PAK 6 (Homo sapiens) (UniProt Q9NQU5); test: Inhibition of PAK6 at 10 uM
[28] = target: Tyrosine-protein kinase Lyn (Homo sapiens) (UniProt P07948); test: Inhibition of LYN at 10 uM; values are per cent of control
[29] = target: cGMP-dependent protein kinase 1 (Homo sapiens) (UniProt Q13976); test: Inhibition of PRKG1 at 10 uM; details: values are per cent of control
[30] = target: Phosphatidylinositol 3-kinase C2 domain-containing subunit gamma (Homo sapiens) (UniProt O75747); test: Inhibition of PIK3C2G at 10 uM
[31] = target: Tyrosine-protein kinase SYK (Homo sapiens) (UniProt P43405); test: Inhibition of SYK at 10 uM
[32] = test system: Tyrosine-protein kinase ABL1 (Homo sapiens), P00519 [T315I]; test: Inhibition of phosphorylated ABL1 T315I mutant at 10 uM; details: values are per cent of control
[33] = target: Serine/threonine-protein kinase/endoribonuclease IRE1 (Homo sapiens) (UniProt O75460); test: Inhibition of ERN1 at 10 uM; details: values are per cent of control
[34] = target: Myotonin-protein kinase (Homo sapiens) (UniProt Q09013); test: Inhibition of DMPK at 10 uM; details: values are per cent of control
[35] = target: Mitogen-activated protein kinase 6 (Homo sapiens) (UniProt Q16659); test: Inhibition of ERK3 at 10 uM; details: values are per cent of control
[36] = target: Ephrin type-A receptor 1 (Homo sapiens) (UniProt P21709); test: Inhibition of EPHA1 at 10 uM; details: values are per cent of control
[37] = target: cAMP-dependent protein kinase catalytic subunit beta (Homo sapiens) (UniProt P22694); test: Inhibition of PKAC-beta at 10 uM; details: values are per cent of control
[38] = target: Homeodomain-interacting protein kinase 1 (Homo sapiens) (UniProt Q86Z02); test: Inhibition of HIPK1 at 10 uM; details: values are per cent of control
[39] = target: BDNF/NT-3 growth factors receptor (Homo sapiens) (UniProt Q16620); test: Inhibition of TRKB at 10 uM; details: values are per cent of control
[40] = target: NUAK family SNF1-like kinase 1 (Homo sapiens) (UniProt O60285); test: Inhibition of ARK5 at 10 uM; values are per cent of control
[41] = target: Protein kinase C delta type (Homo sapiens) (UniProt Q05655); test: Inhibition of PRKCD at 10 uM
[42] = test system: eIF-2-alpha kinase GCN2 (Homo sapiens), Q9P2K8 [S808G]; test: Inhibition of GCN2 Domain2 S808G mutant at 10 uM; details: values are per cent of control

Chain of Fibroblast growth factor receptor 3 (Homo sapiens), P22607 [G697C] (P22607 whole entry G697C): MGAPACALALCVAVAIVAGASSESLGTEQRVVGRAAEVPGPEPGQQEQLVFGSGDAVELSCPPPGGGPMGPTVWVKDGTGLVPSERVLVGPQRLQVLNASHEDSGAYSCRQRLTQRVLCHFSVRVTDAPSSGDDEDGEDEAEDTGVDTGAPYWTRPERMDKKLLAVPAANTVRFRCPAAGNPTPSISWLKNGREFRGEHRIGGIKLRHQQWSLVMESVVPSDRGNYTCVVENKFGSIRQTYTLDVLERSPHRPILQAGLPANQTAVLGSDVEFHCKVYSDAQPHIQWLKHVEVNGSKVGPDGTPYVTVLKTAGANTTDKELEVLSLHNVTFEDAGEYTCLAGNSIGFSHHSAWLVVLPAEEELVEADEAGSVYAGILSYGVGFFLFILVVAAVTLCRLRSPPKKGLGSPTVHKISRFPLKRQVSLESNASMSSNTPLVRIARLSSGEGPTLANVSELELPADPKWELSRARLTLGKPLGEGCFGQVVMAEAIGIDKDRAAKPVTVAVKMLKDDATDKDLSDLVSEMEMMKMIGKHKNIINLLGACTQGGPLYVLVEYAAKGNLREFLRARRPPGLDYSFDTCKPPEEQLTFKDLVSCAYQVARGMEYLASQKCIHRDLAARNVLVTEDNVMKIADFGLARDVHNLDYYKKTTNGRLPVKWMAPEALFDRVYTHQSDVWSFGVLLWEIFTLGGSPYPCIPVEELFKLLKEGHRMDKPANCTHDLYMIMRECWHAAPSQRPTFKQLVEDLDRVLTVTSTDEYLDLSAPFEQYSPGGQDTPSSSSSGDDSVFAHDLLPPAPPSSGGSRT
Chain of Casein kinase I isoform gamma-1 (Homo sapiens) (Q9HCP0 whole entry, looked up, canonical isoform): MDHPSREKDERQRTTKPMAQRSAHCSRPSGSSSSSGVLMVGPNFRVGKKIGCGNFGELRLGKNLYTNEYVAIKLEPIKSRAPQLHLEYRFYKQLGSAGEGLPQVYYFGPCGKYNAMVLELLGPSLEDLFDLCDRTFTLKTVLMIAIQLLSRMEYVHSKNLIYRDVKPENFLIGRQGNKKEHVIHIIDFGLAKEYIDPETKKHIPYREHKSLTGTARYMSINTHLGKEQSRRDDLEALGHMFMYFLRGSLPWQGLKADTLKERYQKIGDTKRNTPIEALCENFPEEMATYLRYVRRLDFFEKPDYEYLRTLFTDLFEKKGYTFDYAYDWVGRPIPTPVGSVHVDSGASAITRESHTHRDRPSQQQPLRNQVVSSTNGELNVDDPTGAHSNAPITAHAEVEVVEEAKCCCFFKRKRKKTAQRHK
Chain of Testis-specific serine/threonine-protein kinase 1 (Homo sapiens) (Q9BXA7 whole entry): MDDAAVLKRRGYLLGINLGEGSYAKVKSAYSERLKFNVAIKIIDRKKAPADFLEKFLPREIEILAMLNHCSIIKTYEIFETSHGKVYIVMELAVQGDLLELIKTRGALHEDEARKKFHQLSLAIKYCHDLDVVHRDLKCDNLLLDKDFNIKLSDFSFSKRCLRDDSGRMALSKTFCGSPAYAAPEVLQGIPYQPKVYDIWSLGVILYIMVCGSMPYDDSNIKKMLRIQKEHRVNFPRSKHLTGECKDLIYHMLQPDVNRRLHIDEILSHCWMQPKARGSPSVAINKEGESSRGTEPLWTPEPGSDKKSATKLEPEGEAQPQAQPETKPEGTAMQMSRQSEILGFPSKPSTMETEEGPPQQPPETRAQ
Chain of TGF-beta receptor type-2 (Homo sapiens) (P37173 whole entry): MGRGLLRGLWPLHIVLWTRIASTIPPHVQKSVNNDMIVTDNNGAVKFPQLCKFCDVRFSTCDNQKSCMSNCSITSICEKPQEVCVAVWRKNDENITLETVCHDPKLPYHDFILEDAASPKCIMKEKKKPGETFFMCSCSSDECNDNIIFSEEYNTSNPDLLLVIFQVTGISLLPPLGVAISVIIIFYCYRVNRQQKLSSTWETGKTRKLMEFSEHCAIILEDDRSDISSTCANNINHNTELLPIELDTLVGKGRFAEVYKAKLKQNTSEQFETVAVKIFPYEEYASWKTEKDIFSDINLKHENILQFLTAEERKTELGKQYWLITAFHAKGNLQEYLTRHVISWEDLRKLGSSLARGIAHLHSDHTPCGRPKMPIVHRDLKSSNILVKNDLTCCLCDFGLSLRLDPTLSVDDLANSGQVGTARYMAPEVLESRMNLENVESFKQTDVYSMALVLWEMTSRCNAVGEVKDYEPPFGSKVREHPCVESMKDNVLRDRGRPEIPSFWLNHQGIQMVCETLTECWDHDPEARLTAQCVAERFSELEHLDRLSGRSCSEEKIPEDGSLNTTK
Chain of Ephrin type-B receptor 1 (Homo sapiens) (P54762 whole entry): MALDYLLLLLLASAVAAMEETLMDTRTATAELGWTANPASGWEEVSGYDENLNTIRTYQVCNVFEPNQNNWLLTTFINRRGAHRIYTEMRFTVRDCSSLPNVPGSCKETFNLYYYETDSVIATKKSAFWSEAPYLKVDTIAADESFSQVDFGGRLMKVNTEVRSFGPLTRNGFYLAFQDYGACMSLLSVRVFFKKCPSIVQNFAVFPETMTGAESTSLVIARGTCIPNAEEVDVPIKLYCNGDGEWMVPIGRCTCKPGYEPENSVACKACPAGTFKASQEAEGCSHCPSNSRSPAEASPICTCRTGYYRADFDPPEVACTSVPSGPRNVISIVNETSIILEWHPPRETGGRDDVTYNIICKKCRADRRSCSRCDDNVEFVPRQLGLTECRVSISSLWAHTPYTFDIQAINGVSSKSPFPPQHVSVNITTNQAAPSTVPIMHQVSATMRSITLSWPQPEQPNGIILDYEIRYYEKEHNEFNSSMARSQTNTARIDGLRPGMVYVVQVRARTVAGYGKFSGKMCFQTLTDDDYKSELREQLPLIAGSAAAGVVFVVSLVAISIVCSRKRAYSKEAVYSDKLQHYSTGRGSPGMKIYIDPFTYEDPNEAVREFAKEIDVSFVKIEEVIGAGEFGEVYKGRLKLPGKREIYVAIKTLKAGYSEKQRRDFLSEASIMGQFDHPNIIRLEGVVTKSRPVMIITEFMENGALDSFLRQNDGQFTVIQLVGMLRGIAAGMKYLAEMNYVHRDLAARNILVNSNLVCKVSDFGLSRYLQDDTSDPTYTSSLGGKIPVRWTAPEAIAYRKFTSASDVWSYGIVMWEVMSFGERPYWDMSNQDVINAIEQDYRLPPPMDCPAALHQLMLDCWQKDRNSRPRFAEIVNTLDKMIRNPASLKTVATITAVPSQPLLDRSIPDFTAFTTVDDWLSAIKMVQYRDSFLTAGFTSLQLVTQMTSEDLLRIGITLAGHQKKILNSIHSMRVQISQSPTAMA
Chain of cGMP-dependent protein kinase 1 (Homo sapiens) (Q13976 whole entry, the tested form may be a part): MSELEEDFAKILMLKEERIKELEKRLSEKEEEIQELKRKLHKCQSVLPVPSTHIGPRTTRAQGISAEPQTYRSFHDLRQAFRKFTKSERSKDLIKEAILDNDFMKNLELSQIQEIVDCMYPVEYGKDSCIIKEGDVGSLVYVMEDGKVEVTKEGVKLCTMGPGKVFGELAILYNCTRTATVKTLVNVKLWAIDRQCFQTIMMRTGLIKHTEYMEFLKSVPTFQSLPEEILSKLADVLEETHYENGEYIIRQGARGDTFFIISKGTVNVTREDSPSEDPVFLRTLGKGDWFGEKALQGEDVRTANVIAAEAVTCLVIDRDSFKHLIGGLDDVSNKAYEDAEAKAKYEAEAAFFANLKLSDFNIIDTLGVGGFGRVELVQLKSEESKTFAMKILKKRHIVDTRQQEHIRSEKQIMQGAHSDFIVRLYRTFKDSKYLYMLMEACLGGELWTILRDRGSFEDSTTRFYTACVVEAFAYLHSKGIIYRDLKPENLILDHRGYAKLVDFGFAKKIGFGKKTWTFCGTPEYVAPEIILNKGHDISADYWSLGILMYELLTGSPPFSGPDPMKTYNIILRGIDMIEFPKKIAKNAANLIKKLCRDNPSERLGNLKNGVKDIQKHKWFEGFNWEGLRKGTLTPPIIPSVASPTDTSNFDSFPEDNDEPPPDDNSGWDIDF
Chain of Atypical kinase COQ8B, mitochondrial (Homo sapiens) (Q96D53 whole entry): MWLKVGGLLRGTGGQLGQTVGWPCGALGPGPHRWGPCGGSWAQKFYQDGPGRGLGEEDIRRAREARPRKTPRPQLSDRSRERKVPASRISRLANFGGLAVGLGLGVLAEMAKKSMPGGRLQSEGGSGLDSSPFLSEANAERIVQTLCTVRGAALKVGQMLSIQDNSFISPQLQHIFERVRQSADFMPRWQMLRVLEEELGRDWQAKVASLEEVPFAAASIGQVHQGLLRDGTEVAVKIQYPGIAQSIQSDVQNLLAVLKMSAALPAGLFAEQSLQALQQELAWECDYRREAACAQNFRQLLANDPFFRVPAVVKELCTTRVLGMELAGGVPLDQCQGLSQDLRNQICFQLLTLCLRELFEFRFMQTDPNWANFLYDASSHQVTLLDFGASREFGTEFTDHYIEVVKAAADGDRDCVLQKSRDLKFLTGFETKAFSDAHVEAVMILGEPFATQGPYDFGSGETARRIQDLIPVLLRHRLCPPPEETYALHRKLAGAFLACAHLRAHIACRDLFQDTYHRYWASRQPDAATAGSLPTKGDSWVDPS
Chain of NUAK family SNF1-like kinase 1 (Homo sapiens) (O60285 whole entry): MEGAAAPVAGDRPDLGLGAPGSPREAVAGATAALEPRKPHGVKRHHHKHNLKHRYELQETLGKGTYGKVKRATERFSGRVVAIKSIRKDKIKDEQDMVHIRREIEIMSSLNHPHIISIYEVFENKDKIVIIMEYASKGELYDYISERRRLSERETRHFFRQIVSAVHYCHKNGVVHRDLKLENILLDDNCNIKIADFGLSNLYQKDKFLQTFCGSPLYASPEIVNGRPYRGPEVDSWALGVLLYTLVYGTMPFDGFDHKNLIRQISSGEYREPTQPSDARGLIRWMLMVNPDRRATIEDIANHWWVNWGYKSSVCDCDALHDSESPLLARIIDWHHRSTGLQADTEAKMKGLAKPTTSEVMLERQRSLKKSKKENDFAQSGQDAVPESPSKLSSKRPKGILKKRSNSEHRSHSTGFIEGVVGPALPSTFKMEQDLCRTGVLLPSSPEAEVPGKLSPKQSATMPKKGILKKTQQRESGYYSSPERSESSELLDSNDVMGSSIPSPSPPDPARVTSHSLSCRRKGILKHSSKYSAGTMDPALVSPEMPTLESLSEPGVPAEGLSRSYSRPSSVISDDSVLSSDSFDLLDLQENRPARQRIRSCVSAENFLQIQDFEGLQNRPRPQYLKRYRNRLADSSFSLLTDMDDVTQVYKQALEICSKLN

In the case of CCN1CCN(Cc2ccc(NC(=O)c3ccc(C)c(C#Cc4cnc5[nH]ccc5c4)c3)cc2C(F)(F)F)CC1, the level, % of control [1] is reported as 100%, the level, % of control [2] is reported as 13% and the residual binding, % of control [3] is reported as 83%. It also gave a residual binding, % of control [4] of 100%, an inhibition [5] of 1.4% and a residual binding, % of control [6] of 0.15%. The inhibition [7] was 87%, the inhibition [8] was 11% and the residual binding, % of control [9] was 0.15%. For the same compound, the inhibition [10] was 38%, the level, % of control [11] was 89% and the inhibition [12] was 10%. The inhibition [13] was 100%, the level, % of control [14] was 100% and the residual binding, % of control [15] was 82%. For the same compound, the level, % of control [16] was 36%, the residual binding, % of control [17] was 98% and the residual binding, % of control [18] was 0%. It also gave a residual binding, % of control [19] of 6.8%, a residual binding, % of control [20] of 64% and a residual binding, % of control [21] of 0.25%. The residual binding, % of control [22] was 78%, the level, % of control [23] was 0.85% and the residual binding, % of control [24] was 0%. It also gave a residual binding, % of control [25] of 0.35%, a residual binding, % of control [26] of 100% and an inhibition [27] of 85%. It also gave a level, % of control [28] of 0.05%, a residual binding, % of control [29] of 100% and an inhibition [30] of 100%. It also gave an inhibition [31] of 1%, a residual binding, % of control [32] of 0.9% and a residual binding, % of control [33] of 54%. For the same compound, the residual binding, % of control [34] was 27%, the residual binding, % of control [35] was 100% and the residual binding, % of control [36] was 0.6%. It also gave a residual binding, % of control [37] of 11%, a residual binding, % of control [38] of 48% and a residual binding, % of control [39] of 2%. For the same compound, the level, % of control [40] was 95%, the inhibition [41] was 24% and the residual binding, % of control [42] was 0.25%.

Compound CCN1CCN(Cc2ccc(NC(=O)c3ccc(C)c(C#Cc4cccnc4)c3)cc2C(F)(F)F)CC1 has a level, % of control [1] of 100%, a level, % of control [2] of 10% and a residual binding, % of control [3] of 75%. The residual binding, % of control [4] was 100%, the inhibition [5] was 1.3% and the residual binding, % of control [6] was 0.05%. The inhibition [7] was 88%, the inhibition [8] was 6.2% and the residual binding, % of control [9] was 0.3%. It also gave an inhibition [10] of 70%, a level, % of control [11] of 100% and an inhibition [12] of 79%. For the same compound, the inhibition [13] was 100%, the level, % of control [14] was 100% and the residual binding, % of control [15] was 85%. For the same compound, the level, % of control [16] was 71%, the residual binding, % of control [17] was 92% and the residual binding, % of control [18] was 0%. The residual binding, % of control [19] was 3.9%, the residual binding, % of control [20] was 83% and the residual binding, % of control [21] was 0.1%. The residual binding, % of control [22] was 94%, the level, % of control [23] was 1.2% and the residual binding, % of control [24] was 0%. It also gave a residual binding, % of control [25] of 0.5%, a residual binding, % of control [26] of 100% and an inhibition [27] of 100%. It also gave a level, % of control [28] of 0.05%, a residual binding, % of control [29] of 100% and an inhibition [30] of 100%. The inhibition [31] was 13%, the residual binding, % of control [32] was 2.6% and the residual binding, % of control [33] was 51%. The residual binding, % of control [34] was 100%, the residual binding, % of control [35] was 100% and the residual binding, % of control [36] was 1.2%. It also gave a residual binding, % of control [37] of 4.1%, a residual binding, % of control [38] of 37% and a residual binding, % of control [39] of 1.6%. It also gave a level, % of control [40] of 100%, an inhibition [41] of 39% and a residual binding, % of control [42] of 1.3%.
